Among the data in patent publication US9839701B2, “Aromatic amino acid derivative and positron emission topography (PET) probe using the same” (OSAKA UNIVERSITY, priority 2013, dated 2017) are inhibition and IC50 values, retold here.

Molecules are shown by their SMILES.

The target in the assay is T1, human LAT2 (Homo sapiens, UniProt Q9UHI5).
T1 construct: expressed in transfected cells
T1 sequence (Q9UHI5 1-535): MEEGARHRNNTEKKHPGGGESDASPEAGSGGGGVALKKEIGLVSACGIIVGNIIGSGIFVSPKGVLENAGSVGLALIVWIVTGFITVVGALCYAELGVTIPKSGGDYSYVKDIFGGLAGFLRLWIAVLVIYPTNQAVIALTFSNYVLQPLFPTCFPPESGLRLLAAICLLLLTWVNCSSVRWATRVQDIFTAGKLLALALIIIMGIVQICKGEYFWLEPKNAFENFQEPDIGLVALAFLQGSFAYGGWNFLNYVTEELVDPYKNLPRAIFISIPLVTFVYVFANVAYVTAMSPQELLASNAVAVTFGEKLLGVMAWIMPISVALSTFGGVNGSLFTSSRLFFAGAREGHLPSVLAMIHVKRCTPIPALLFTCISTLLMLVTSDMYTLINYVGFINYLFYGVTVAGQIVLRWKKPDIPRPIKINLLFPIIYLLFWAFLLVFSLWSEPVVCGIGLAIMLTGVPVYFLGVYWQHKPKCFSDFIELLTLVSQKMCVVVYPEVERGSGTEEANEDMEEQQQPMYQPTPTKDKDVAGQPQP
T1 sequence (P08195 1-529 partner): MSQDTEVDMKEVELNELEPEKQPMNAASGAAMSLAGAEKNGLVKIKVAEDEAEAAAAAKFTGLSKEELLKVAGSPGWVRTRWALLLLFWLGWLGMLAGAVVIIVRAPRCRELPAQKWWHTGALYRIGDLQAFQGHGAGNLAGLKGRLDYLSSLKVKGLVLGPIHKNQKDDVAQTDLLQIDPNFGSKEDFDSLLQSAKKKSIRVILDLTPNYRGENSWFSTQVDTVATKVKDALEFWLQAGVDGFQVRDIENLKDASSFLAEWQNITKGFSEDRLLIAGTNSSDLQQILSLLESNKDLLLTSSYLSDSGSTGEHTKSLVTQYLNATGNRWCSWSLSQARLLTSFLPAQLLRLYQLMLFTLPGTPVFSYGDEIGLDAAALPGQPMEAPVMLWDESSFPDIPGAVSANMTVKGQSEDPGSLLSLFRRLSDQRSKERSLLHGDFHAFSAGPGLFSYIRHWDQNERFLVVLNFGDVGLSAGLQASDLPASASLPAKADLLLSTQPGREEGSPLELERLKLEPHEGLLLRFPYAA
In words: Inhibition of amino acid uptake in human LAT2 stably expressing cell line. Format: cell-based. From the text:
A human LAT1 expression vector or a human LAT2 expression vector was transfected using Lipofectamine (registered trademark) 2000 (Invitrogen) into a human embryonic kidney cell line HEK293. G418-resistant HEK293 clones were selected, and among them, a clone showing human LAT1-specific amino acid uptake and a clone showing human LAT2-specific amino acid uptake were selected and established as a human LAT1 stably expressing cell line and a human LAT2 stably expressing cell line, respectively (Khunweeraphong et al. J Pharmacol Sci. 2012 Aug. 18; 119(4): 368-80. Epub 2012 Jul. 31).
The human LAT1 stably expressing cell line and the human LAT2 stably expressing cell line were seeded at 1.2×10^5 cells/well on separate collagen-coated 24-well plates, and after 48 hours, the cells were washed 3 times with an uptake buffer (Na^2+-free Hank's balanced salt solution (HBSS), pH 7.4) prewarmed at 37° C. Compound 10a, compound 10b or a positive control FAMT (fluoro-α-methyltyrosine) was added at 100 μM, and incubation was performed at 37° C. for 3 minutes. Cells not treated with any of these compounds were used as a negative control. After the incubation, 1 μM of [^14C]L-leucine or [^14C]alanine was added to the wells, [^14C]L-leucine or [^14C]alanine uptake was allowed to proceed for 1 minute, and the cells were washed 3 times with an ice-cold uptake buffer. Subsequently, 500 μL of 0.1 M NaOH was added to each well for cell lysis, 20 μL of the lysate was used for the measurement of the protein concentration, and the remaining lysate was used for the measurement of the intracellular radioactivity. The measured radioactivity was normalized to the protein concentration, and on the assumption that the amino acid uptake activity in the negative control was 100%, the percentage (%) of inhibition of amino acid uptake in the presence of each compound was calculated.
Using the same cell lines as described in Example 2, the compound of Example 1 was examined for the inhibitory effect on leucine or alanine uptake in the human LAT1 stably expressing cell line and the human LAT2 stably expressing cell line in the same manner as in Example 2. FAMT was used as the positive control. The compound of Example 1 or FAMT was added at 100 μM. Cells not treated with either of these compounds were used as a negative control. On the assumption that the amino acid uptake activity in the negative control (control) was 100%, the percentage (%) of inhibition of amino acid uptake in the presence of FAMT or the compound of Example 1 was calculated. In addition, the cancer cell selectivity was calculated as the ratio of the amino acid uptake activity in the human LAT2 stably expressing cell line relative to that in the human LAT1 stably expressing cell line.
In another experiment, the cells were treated with the compound of Example 1 at eight different concentrations (0.1, 1, 3, 10, 30, 100, 300 and 1000 μM), and the concentration causing 50% inhibition of amino acid uptake was calculated as the IC50 value.
A human LAT1 stably expressing cell line and a human LAT2 stably expressing cell line, each of which was the same as described in Example 2, were seeded at 1.2×10^5 cells/well, and after 48 hours, the cells were washed 3 times with an uptake buffer (Na^2+-free Hank's balanced salt solution (HBSS), pH 7.4) prewarmed at 37° C. The test compounds, L-tyrosine or the positive control FAMT (fluoro-α-methyltyrosine) was added at 30 μM, and incubation was performed at 37° C. for 3 minutes. Cells not treated with any of these compounds were used as a negative control. After the incubation, 1 μM of [^14C]L-leucine or [^14C]alanine was added to the wells, [^14C]L-leucine or [^14C]alanine uptake was allowed to proceed for 1 minute, and the cells were washed 3 times with an ice-cold uptake buffer. […]

By inhibition is commonly meant the drop in the measured response relative to a control, in per cent. In general, IC50 refers to the concentration at which inhibition is half-maximal. Higher therefore signals a need for much substance. As to `NC(Cc1cc(OCCF)ccc1I)C(=O)O` (centres unmarked) [Example 1, 2-amino-3-(5-(2-fluoroethoxy)-2-iodophenyl)propanoic acid], the inhibition at 100 µM (HEK293, compound at 100 μM, human LAT2 stably expressing HEK293 cell line, 1 μM [14C]L-leucine or [14C]alanine, 1 min uptake, read-out: Percentage of inhibition of LAT2-mediated amino acid uptake) turned out to be 55.1%. For the setting “eight concentrations 0.1-1000 μM”, this compound showed an IC50 of 84 µM.
